From patent publication US20240261302A1, “METHODS OF TREATING NEURODEGENERATIVE DISEASES OR CONDITIONS” (FloraScience Inc., priority 2023, published 2024)

Legend:
primary cortical neurons = experiment: Neuroprotection against RSL3 in primary neurons; format: cell-based, rat; settings: CBN 10 μM, data not shown
Description: Embryonic Cortical Neuron Extraction. Primary cortical neurons were prepared from embryonic day 17 Sprague-Dawley rat pups and used at 7 days in vitro as previously described (7 DIV). Neurons were dissociated from the cortex and maintained in Neurobasal-A medium (Invitrogen, Cat #10888022, Carlsbad, CA) supplemented with B-27 Supplement (Invitrogen, Cat #17504044, Carlsbad, CA), 2 mM glutamine, and 1% antibiotics including penicillin and streptomycin. Cell cultures were incubated at 37° C. in a fully humidified atmosphere containing 10% CO2. All animal procedures were approved by the Salk Institute's Institutional Animal Care and Use Committee.

HT22 cells [1] = experiment: Immunoblotting (Western blots) of protein levels; format: cell-based, mouse
Description: Cell Protein Extraction. HT22 cells were seeded onto 10 cm dishes at a density of 400,000 cells/dish in DMEM supplemented with 10% FBS and 1% antibiotics, and then exposed to the desired treatments. For total protein extracts, HT22 cells were washed with ice-cold phosphate buffered saline (PBS) and lysed with cell extraction buffer containing 10 mM Tris, pH 7.4, 100 mM NaCl, 1 mM EDTA, 1 mM EGTA, 1 mM NaF, 20 mM Na4P2O7, 2 mM Na3VO4, 1% Triton X-100, 10% glycerol, 0.1% sodium dodecyl sulfate (SDS), 0.5% sodium deoxycholate, a protease inhibitor cocktail, and a phosphatase inhibitor cocktail followed by centrifugation (14000 g) for 30 min at 4° C. For nuclear extracts, HT22 cells were washed with ice-cold PBS, incubated with a nuclear fractionation buffer containing 10 mM HEPES, pH 7.9, 10 mM KCl, 0.1 mM EDTA, 0.1 mM EGTA, 1 mM DTT, 1 mM Na3VO4, a protease inhibitor cocktail, and a phosphatase inhibitor cocktail on ice for 15 min, then Nonidet P-40 at a final concentration of 0.6% was added to the buffer. Cells were vortexed, and the nuclei pelleted by centrifugation (1000 g) for 10 min at 4° C. Nuclear proteins were extracted by sonication of the nuclear pellet in nuclear fractionation buffer followed by centrifugation (14000 g) for 30 min at 4° C. The resulting supernatants of total/nuclear protein extracts were stored at −80° C. until analysis. Concentrations of the harvested proteins were determined by the BCA protein assay.
Immunoblotting. Western blots were carried out as follows. Laemmli sample buffer with 2% β-mercaptoethanol was added to the samples and then boiled for 5 min prior to SDS-PAGE. Equal amounts of cellular protein for each sample (10 μg per lane) were resolved by 4-12% gradient Criterion XT Precast Bis-Tris Gels (Bio-Rad, Hercules, CA) and transferred onto PVDF membranes with a Trans-Blot Turbo System (Bio-Rad, Hercules, CA). The membranes were blocked with 5% skim milk in TBST (20 mM Tris buffer, pH 7.5, 0.5 M NaCl, 0.1% Tween 20) for 1 hr at room temperature and incubated overnight at 4° C. with the diluted primary antibody in 5% BSA in TBST. After washes with TBST, the membranes were incubated with horseradish peroxidase-conjugated goat anti-rabbit or anti-mouse secondary antibodies (Bio-Rad, Hercules, CA) diluted 1:5000 in 5% skim milk in TBST. For all primary antibodies, the same membrane was re-probed for β-actin or an antiserum reacting with the total protein. After additional washing, protein bands were detected using the SuperSignal West Pico PLUS Chemiluminescent Substrate, and visualized with a ChemiDoc MP Imaging System (Bio-Rad, Hercules, CA). Band density was quantified densitometrically with Image Lab software (Bio-Rad, Hercules, CA). Relative protein expression was normalized to ß-actin band density. Each Western blot was performed three to six times with independent protein samples (n=3−6).

HT22 cells [2] = experiment: Cytotoxicity assessment of CBN in HT22 cells; format: cell-based, mouse
Description: FIGS. 2A-2I show CBN inhibits oxytosis/ferroptosis in HT22 cells. Representative micrographs of HT22 cells following treatment for 16 h: (FIG. 2A) 0.2% ethanol treatment as vehicle control, (FIG. 2B) 5 μM CBN treatment, (FIG. 2C) 5 mM glutamate treatment, (FIG. 2D) 50 nM RSL3 treatment, (FIG. 2E) 5 μM CBN pretreatment for 1 h followed by 5 mM glutamate treatment, (FIG. 2F) 5 μM CBN pretreatment for 1 h followed by 50 nM RSL3 treatment. Micrographs show the representative morphological characteristics of the cell cultures under a given condition of 16 experimental replicates. Scale bar=100 μm. (FIG. 2G) Cells were pretreated with varying concentrations of CBN for 1 h followed by 5 mM glutamate treatment and incubation for 16 h. (FIG. 2H) Cells were pretreated with varying concentrations of CBN for 1 h followed by 50 nM RSL3 treatment and incubation for 16 h. The results are presented as the percentage of the neuroprotective activity relative to control (100%) and Glu/RSL3 (0%). The neuroprotection curves were analyzed by four-parameter regression. (FIG. 2I) Cytotoxicity assessment of CBN in HT22 cells. Cells were treated with increasing concentrations of CBN or 0.2% ethanol vehicle and incubated for 16 h. Data are the mean of 8-16 replicates per condition±SD.

HT22 cells [3] = experiment: Total GSH Measurements; format: cell-based, mouse; settings: 5 μM
Description: Total GSH Measurements. HT22 cells were seeded onto 35 mm dishes at a density of 70,000 cells/dish in DMEM supplemented with 10% FBS and 1% antibiotics. After the desired treatments, the cells were scraped into ice-cold PBS and the cell pellets collected by centrifugation (500 g). The pellets were resuspended in PBS and 10% sulfosalicylic acid was added at a final concentration of 3.3% to the cells. Proteins were pelleted by centrifugation and the supernatant neutralized. Total GSH was determined by the recycling assay based on the reduction of 5,5-dithiobis(2-nitrobenzoic acid) with glutathione reductase and NADPH and normalized to protein recovered from the acid-precipitated pellet by treatment with 0.2 N NaOH at 37° C. overnight and measured by the BCA protein assay (Pierce, Rockford, IL, USA). Samples were analyzed in four dishes per independent experiment (n=4).

In the case of `CCCCCc1cc(O)c2c(c1)OC(C)(C)c1ccc(C)cc1-2` [CBN, 6,6,9-Trimethyl-3-pentyl-benzo[c]chromen-1-ol], the “neuroprotection against 50 nM RSL3” value (primary cortical neurons) is reported as ~100%, the “DRP1 and MFF levels, co-treatment with RSL3” value (HT22 cells [1]) is reported as “restored DRP1 levels but not MFF levels” and the “MFF and DRP1 expression, compound alone” value (HT22 cells [1]) is reported as “significantly enhanced the expression of MFF but not DRP1”. For the same compound, the “OPA1 and MFN2 expression, co-treatment with RSL3” value (HT22 cells [1]) was “enhanced the expression of OPA1 but not MFN2”, the “PGC-1α and TFAM levels, compound alone” value (HT22 cells [1]) was “no apparent effects” and the “RSL3-induced decrease of SIRT1, pAMPK/AMPK, PGC-1α, NRF1, TFAM” value (HT22 cells [1]) was “prevented”. The “protein expression of OXPHOS complexes I, II, III and V, compound alone” value (HT22 cells [1]) was “did not exert obvious effects”, the “protein expression of SIRT1, pAMPK(Thr172)/AMPK and NRF1, compound alone” value (HT22 cells [1]) was “upregulated” and the “RSL3-induced upregulation of OXPHOS complexes” value (HT22 cells [1]; 50 nM RSL3) was “inhibited”. The “effect on ATF4 with RSL3” value (HT22 cells [1]; 5 μM CBN, 50 nM RSL3) was “not significant”, the “protein levels of Nrf2, HO-1, SOD2 and GPX4 with RSL3” value (HT22 cells [1]; 5 μM CBN, 50 nM RSL3) was “at levels similar to the control cells” and the “protein levels of Nrf2, HO-1, SOD2 and GPX4, compound alone” value (HT22 cells [1]; 5 μM, 16 h) was “upregulation”. For the same compound, the “MCU expression, compound alone” value (HT22 cells [1]; 5 μM, 16 hr) was “reduced basal MCU expression”, the “RSL3-induced HSP60 upregulation” value (HT22 cells [1]; 16 h) was “suppressed” and the “VDAC level, compound alone” value (HT22 cells [1]; 16 h) was “upregulated”. The “OPA1 and MFN2 levels, compound alone” value (HT22 cells [1]; 16 hr) was “upregulated”, the “RSL3-induced MCU upregulation” value (HT22 cells [1]; p<0.0001) was “prevented this increase” and the “RSL3-induced VDAC decrease” value (HT22 cells [1]; p<0.0001) was “prevented”. The “protein level of OXPHOS complex IV, compound alone” value (HT22 cells [1]; p<0.0001) was “reduced”, the “cellular morphology, compound alone” value (HT22 cells [2]; 5 μM, 16 hr, microscopic imaging) was “did not induce visual changes in cellular morphology” and the “concentrations at which cytotoxicity was noted” value (HT22 cells [2]; HT22 cells, 16 h) was ≥ 500 µM. For the same compound, the “dose up to which no apparent cytotoxicity was observed” value (HT22 cells [2]; HT22 cells, 16 h) was ≤ 200 µM and the “total GSH levels” value (HT22 cells [3]) was “no impact”.
